Data: patent publication US20230174472A1, “THERAPEUTIC USE OF PLEUROMUTILINS” (priority 2020, published 2023)
Read-outs that look alike come from different tables or passages of the source.

What was measured:
[1] = system: influenza A virus, porcine reproductive and respiratory syndrome virus (PRRSV) type 1 and 2; conditions: WO 2009/106839; compared to Tiamulin 0.1-10 μg/mL; cited from earlier work
[2] = system: mice challenged with lipopolysaccharide (LPS); assay: LPS induced lung neutrophilia model, BALF cell counts (Example 2); conditions: 10, 30 and 100 mg/kg SC; 4 h post LPS
[3] = system: TNF-α, IL-6, IL-1β, GM-CSF, CXCL1, CXCL2, CCL2, MMP9 in lung homogenate; assay: LPS induced lung neutrophilia model, marker concentrations in lung homogenate (Example 2)
[4] = system: lipopolysaccharide (LPS)-induced ALI; conditions: cited from earlier work
[5] = in vitro; conditions: human
[6] = system: alpha coronavirus 229E (HCoV-229E); assay: inhibition of virus-induced CPE, CoV229E in MRC-5 cells (XTT); format: cell-based
Protocol: The antiviral compound Remdesivir served as positive control.
Lefamulin (as acetate) was evaluated using different treatment conditions of 4 h, 1 h or 0 h incubation prior to virus addition and addition 1 h after infection For this particular set of experiments, coronavirus was diluted 1:200 in assay medium and added at 100 μL/well to achieve approximately 90% cell killing in the untreated virus control wells (MOI of 0.001).

[7] = system: influenza A/Puerto Rico/8/34 (H1N1); format: in vivo, BALB/c mice
[8] = in vitro; conditions: dog
[9] = system: respiratory syncytial virus (RSV B18537); assay: inhibition of virus-induced CPE, RSV B18537 in HEp2 cells; conditions: Example 10; investigated strain of RSV B
[10] = system: respiratory syncytial virus (RSV ALONG); assay: inhibition of virus-induced CPE, RSV ALONG in HEp2 cells; conditions: Example 10; investigated strain of RSV A
[11] = system: human respiratory syncytial virus (strain RSVA2); assay: inhibition of virus-induced CPE, RSVA2 in HEp2 cells (XTT)
[12] = system: human respiratory syncytial virus (strain RSVA2); conditions: Example 8
[13] = system: MRC-5 cells; conditions: Example 6
[14] = system: HEp2 cells; assay: cell viability of uninfected HEp2 cells (XTT); conditions: Example 8
[15] = in vitro; conditions: human, TC50
[16] = system: mice challenged with lipopolysaccharide (LPS); assay: modified LPS induced lung neutrophilia model, BALF cell counts 24 h post LPS (Example 4)
[17] = cell viability of uninfected Huh7 cells; conditions: human, TC50, Example 13 (Zika assay)
[18] = system: human rhinovirus strain HRV16 strain 11757; assay: inhibition of virus-induced CPE, human rhinovirus in H1-HeLa cells; format: cell-based; conditions: Human rhinovirus sp., 4 hour pretreatment
Protocol: Cell viability determination as well as EC50 and TC50 calculations were performed as described in Examples 6 and 8.

[19] = in vitro; conditions: human; remark: listed apart in the source
[20] = system: herpes simplex type 1 (HSV-1) virus; conditions: cited from earlier work
[21] = system: vesicular stomatitis virus (VSV); conditions: cited from earlier work
[22] = system: influenza A virus strain (PR8); conditions: cited from earlier work
[23] = system: polio virus; conditions: cited from earlier work
[24] = lower doses of 10 and 30 mg/kg SC
[25] = same doses (10, 30, 100 mg/kg SC)

C=C[C@]1(C)C[C@@H](OC(=O)CSC(C)(C)CNC(=O)[C@H](N)C(C)C)[C@]2(C)[C@H](C)CC[C@]3(CCC(=O)[C@H]32)[C@@H](C)[C@@H]1O [Valnemulin, reference compound]
antiviral activity [1]: did not exhibit antiviral activity
lymphocyte cell counts in BALF [2]: not significantly affected
macrophage cell counts in BALF [2]: not significantly affected
reduction of MMP9 levels in lung homogenate ([3]; 100 mg/kg SC): 50%
GM-CSF in lung homogenate ([3]; all doses tested (10, 30, 100 mg/kg SC)): showed a reduction of GM-CSF levels, but was less active than Lefamulin
LPS-induced CCL2 increase in the lung homogenate ([3]; all investigated doses (10, 30, 100 mg/kg SC), Valnemulin particularly at 10 and 30 mg/kg): less active
effect on CXCL1 compared to Lefamulin [3, 24]: less effect
effect on CXCL2 compared to Lefamulin [3, 24]: less effect
IL-6 level in lung homogenate, compared with Lefamulin [3, 25]: less active
TNF-α level in lung homogenate, compared with Lefamulin [3, 25]: less active
concentration of pro-inflammatory cytokines TNF-α, IL-6 and IL-1ß in bronchoalveolar lavage fluid ([4]; in vivo): attenuate
pulmonary wet-to-dry (W/D) ratio in the lung ([4]; pre-administration): significantly reduced

CCC(CC)COC(=O)[C@H](C)N[P@](=O)(OC[C@H]1O[C@@](C#N)(c2ccc3c(N)ncnn23)[C@H](O)[C@@H]1O)Oc1ccccc1 [Remdesivir, reference compound]
CC50 [5]: > 5000 nM
EC50 ([6]; Human coronavirus 229E, MRC5): 110 nM

CCOC(=O)C1=C[C@@H](OC(CC)CC)[C@H](NC(C)=O)[C@@H](N)C1 [Oseltamivir, reference compound]
lung viral titres (TCID50 on MDCK cells) ([7]; Lefamulin at both doses, Oseltamivir positive control, Day 3 and Day 6, vs vehicle treated control): reduced
bodyweight loss ([7]; positive control treatment): reduction
clinical scores ([7]; positive control treatment): reduction
CC50 [8]: > 200000 nM

Cc1ccc(CCCO)c(NCc2ccc3nc(NCCCN4CCOCC4)n(Cc4nc(C)ccc4O)c3c2)c1 [TMC353121]
EC50 [9]: 0.01 nM
EC50 [10]: 0.01 nM
EC50 ([11]; Example 8, HEp2 cells, 4 h incubation prior to virus, MOI 0.001, 6 days post-infection, Lefamulin as acetate, Tiamulin as fumarate): 0.6 nM
EC50 ([11]; Example 9, MOI 0.0004): 0.04 nM
EC50 ([11]; Example 9, MOI 0.0008): 0.3 nM
EC50 ([11]; Example 9, MOI 0.001): 0.2 nM
EC50 ([11]; Example 9, MOI 0.003): 0.2 nM

C=C[C@]1(C)C[C@@H](OC(=O)CSCCN(CC)CC)[C@]2(C)[C@H](C)CC[C@]3(CCC(=O)[C@H]32)[C@@H](C)[C@@H]1O [Tiamulin, reference compound]
CC50 at 6 days [5]: 62900 nM
reduction of viral CPE ([6]; 10 µM): 10.53%
reduction of viral CPE ([6]; 50 μM): 81.68%
EC50 ([6]; Example 6, MRC-5 cells, 4 h incubation prior to virus, MOI 0.001, 6 days post-infection, Lefamulin as acetate, Tiamulin as fumarate, read-out: EC50): 24400 nM
reduction of viral CPE ([12]; 10 μM): 16.76%
reduction of viral CPE ([12]; 50 μM): 43.28%
cytotoxic effect on the viability of the cell control ([13]; 10 μM): no cytotoxic effect
cytotoxic effect on the viability of the cell control ([13]; 50 μM): cytotoxic effect
EC50 ([11]; human respiratory syncytial virus, HEp-2, Example 8, HEp2 cells, 4 h incubation prior to virus, MOI 0.001, 6 days post-infection, Lefamulin as acetate, Tiamulin as fumarate): > 67900 nM
viability ([14]; 10 μM): 84%
viability ([14]; 50 μM): 70.0%
CC50 at 6 days [15]: 67900 nM

C=C(CC(=O)[O-])C(=O)[O-].[Na+].[Na+] [Sodium itaconate, reference compound]
BALF cell counts ([16]; 55 mg/kg single SC dose 30 min prior to IN LPS): some reduction

CC(C)OC(=O)[C@H](C)N[P@](=O)(OC[C@H]1O[C@@H](n2ccc(=O)[nH]c2=O)[C@](C)(F)[C@@H]1O)Oc1ccccc1 [Sofosbuvir, reference compound]
CC50 at 6 days [17]: > 10000 nM

CCOC(=O)/C=C/[C@H](C[C@@H]1CCNC1=O)NC(=O)[C@@H](CC(=O)[C@@H](NC(=O)c1cc(C)on1)C(C)C)Cc1ccc(F)cc1 [Rupintrivir]
EC50 [18]: 4.9 nM
EC50 ([18]; MOI 0.0005, Lefamulin as acetate): 4.9 nM
CC50 [19]: > 100 nM

Lefamulin acetate
cell count in BALF ([16]; 70 mg/kg single SC dose 30 min prior to IN LPS): reduction

C=C[C@]1(C)C[C@@H](OC(=O)CO)[C@]2(C)[C@H](C)CC[C@]3(CCC(=O)[C@H]32)[C@@H](C)[C@@H]1O [Pleuromutilin]
concentration that conferred a 50% protection of the cytopathic effect induced by HSV-1 (CPE50) [20]: 15 µg/mL
EC50 ([20]; read-out: concentration that conferred a 50% protection of the cytopathic effect induced by HSV-1 (CPE50)): 40000 nM
activity against vesicular stomatitis virus (VSV) [21]: activity
concentration with antiviral activity [22]: 2 mg/mL
antiviral activity for polio virus [23]: did not show antiviral activity
